Columns and labels:
DENV = assay: Exogenous COX-2 (pCMV-COX-2-Myc) overexpression rescue of DENV replication in Huh-7 cells; format: cell-based, dengue virus; conditions: 1 μM; pCMV-COX-2-Myc transfected Huh-7 cells
Protocol: (§1) In a previous study, Lin et al. reported that induction of COX-2 could suppress DENV replication. To determine whether compound 19a had impact on COX-2 protein and mRNA expression in Huh-7 cells, we treated Huh-7 cells with 0.5 to 5 μM of 19a. […] To characterize whether the 19a-mediated downregulation of COX-2 expression and its catalytic activity was involved in the suppression of DENV replication, we overexpressed exogenous COX-2 to evaluate the inhibitory activity of 19a on DENV replication. […] Consistently, the exogenous expression of COX-2 attenuated the inhibitory effect of 19a on the non-structural 2B (NS2B) protein levels, as analyzed by Western blotting.
(§2) Huh-7-DV-Fluc cells were seeded in 24-well plates at a density of 2 × 10^4 cells per well, and treated with the 3-arylquinoxaline compounds at two concentrations (1 and 10 μM) or 0.1% DMSO as control. […] After three days, protein and RNA levels were analyzed by Western blotting with a specific antibody as previously described respectively.
(§3) Figure 4 Inhibitory effect of 19a on DENV-induced cyclooxygenase-2 (COX-2) expression in Huh-7 cells. […] The results are expressed as the means ± standard deviations (SD) of triplicate experiments.

COX-2 expression = assay: COX-2 protein and mRNA expression in Huh-7 cells (Western blotting, RT-qPCR); format: cell-based, Human; conditions: 0.5 to 5 μM, vs DMSO
Protocol: as §1
Huh-7 cells were seeded in 24-well plates at a density of 5 × 10^4 cells per well overnight and treated with indicated reagent at proper concentrations for three days. […] The protein concentration was determined by the Bradford method. […] The blotting signal was developed using an enhanced chemiluminescence (ECL) detection kit (PerkinElmer, Waltham, MA, USA) and was counted by the software Quantity One (Bio-Rad, Hercules, CA, USA). […]
as §3

COX-2 promoter = assay: COX-2 promoter-based reporter assay (pCOX-2-Luc) in DENV-infected Huh-7 cells; format: cell-based, Human; conditions: increasing concentrations, three days
Protocol: We also used a COX-2 promoter-based reporter assay to evaluate the inhibitory effect of 19a on COX-2 at the transcriptional level. The pCOX-2-Luc, a plasmid encoding firefly luciferase under the control of the COX-2 promoter, was transfected into Huh-7 cells or DENV-infected Huh-7 cells and, then, these plasmid-transfected cells were incubated with 19a at increasing concentrations for three days.
as §2, with “control. After three days of incubation, the luciferase activity assay was performed using the Bright-Glo Luciferase assay system (Promega, Madison, WI, USA) according to the manufacturer’s instructions.” for “control.”
as §3

COc1ccc(-c2nc3ccccc3nc2C(O)c2ccccc2)cc1 (stereo not shown) [Compound 19a, [3-(4-Methoxyphenyl)quinoxalin-2-yl](phenyl)methanol]
viral RNA level reduced by compound upon increasing exogenous COX-2-Myc expression (DENV): gradually rescued | COX-2 mRNA level (COX-2 expression): could inhibit | COX-2 protein level (COX-2 expression): could inhibit | DENV-elevated COX-2 promoter activity (COX-2 promoter): dose-dependently decreased
